According to US12728161B2 (priority 2019, dated 2026):
“Also recorded” adds a separate entry of the source.

Legend:
[1] = tested on: HEK293T cells expressing NiV F and G; type: cell-based
[2] = tested on: pseudotyped NiV/VSV virus (pNiV)
[3] = tested on: NiV; settings: cited from earlier work
[4] = tested on: HSV-1 KOS; assay: Plaque assay for HSV-1 infections; type: cell-based; settings: virions treated with XM-01 before infection, various concentrations
Method: At 3 h post-inoculation, the medium was removed. At 18 to 24 h post-infection, the culture medium was removed, and cells were fixed with an ice-cold methanol-acetone solution (2:1 ratio) for 20 min at […] and air-dried. Virus titers were determined by immunoperoxidase staining with anti-HSV polyclonal antibody HR50 (Fitzgerald Industries, Concord, MA) (Roller et al., “Structure-Function Analysis of Herpes Simplex Virus Glycoprotein B with Fusion-from-without Activity,” Virology 382:207-216 (2008), which is hereby incorporated by reference in its entirety).

[5] = tested on: Human Cytomegalovirus (HCMV); type: cell-based
[6] = tested on: Human respiratory syncytial virus (RSV A2 strain); type: cell-based
[7] = tested on: vesicular stomatitis virus (VSV); type: cell-based
[8] = tested on: A/California/04/2009 (H1N1); type: cell-based, influenza virus
[9] = tested on: bovine rotavirus strain NCDV; assay: Rotavirus infection assay in MA104 cells; type: cell-based; settings: non-enveloped virus
Method: 18β-glycyrrhetinic acid (GRA) (Sigma-Aldrich) stock solutions were prepared to a concentration of 100 mg/mL in DMSO and aliquots were stored at −80° C. The stock solutions were diluted to working concentrations in DMEM without FBS. For the control compounds, MA104 (ATCC) cells were treated for 6 h with 25 μg/mL GRA. The viability was measured with the Promega CellTiterGlo Assay according to the manufacturer's protocol, with digitonin as the control for 100% cytotoxicity. Data shown are representative of two experiments, with each concentration tested in triplicate in each experiment. Error bars indicate SEM. […] Mock-infected wells received 50 μl of 0% M199 vehicle media. 50 μl of fresh 2× control and experimental compounds were added and at 18 h post-infection, the cells were fixed for 10 min with 80% acetone (Hardy et al., “18 Beta-glycyrrhetinic Acid Inhibits Rotavirus Replication in Culture,” Virol. J. 9:96 (2012), which is hereby incorporated by reference in its entirety).

[10] = tested on: norovirus; assay: Plaque assay for norovirus infection in RAW 264.7 cells; type: cell-based; settings: non-enveloped virus
Method: RAW 264.7 (ATCC) cells were infected with serial dilutions of norovirus for 1 h. 3% wt/vol Seaplaque agarose in 2×MEM media was placed as a first overlay. Then, cells were incubated for 48 h when plaques were visible and counted.

[11] = tested on: NiV F and G glycoproteins; type: cell-based; settings: XM-01 treatment
[12] = tested on: pNiV viral membranes; design: species or system NiV
[13] = tested on: SARS-CoV-2 (isolate USA-WA1/2020); type: cell-based
[14] = tested on: Vero cells
[15] = biological target: NiV G glycoprotein (Nipah virus, UniProt Q9IH62)
[16] = biological target: NiV F protein (Nipah virus, UniProt Q9IH63)
[17] = biological target: NiV F and G on pNiV virions (Nipah virus, UniProt Q9IH62+Q9IH63)

NiV G glycoprotein, sequence (Q9IH62 whole entry, looked up): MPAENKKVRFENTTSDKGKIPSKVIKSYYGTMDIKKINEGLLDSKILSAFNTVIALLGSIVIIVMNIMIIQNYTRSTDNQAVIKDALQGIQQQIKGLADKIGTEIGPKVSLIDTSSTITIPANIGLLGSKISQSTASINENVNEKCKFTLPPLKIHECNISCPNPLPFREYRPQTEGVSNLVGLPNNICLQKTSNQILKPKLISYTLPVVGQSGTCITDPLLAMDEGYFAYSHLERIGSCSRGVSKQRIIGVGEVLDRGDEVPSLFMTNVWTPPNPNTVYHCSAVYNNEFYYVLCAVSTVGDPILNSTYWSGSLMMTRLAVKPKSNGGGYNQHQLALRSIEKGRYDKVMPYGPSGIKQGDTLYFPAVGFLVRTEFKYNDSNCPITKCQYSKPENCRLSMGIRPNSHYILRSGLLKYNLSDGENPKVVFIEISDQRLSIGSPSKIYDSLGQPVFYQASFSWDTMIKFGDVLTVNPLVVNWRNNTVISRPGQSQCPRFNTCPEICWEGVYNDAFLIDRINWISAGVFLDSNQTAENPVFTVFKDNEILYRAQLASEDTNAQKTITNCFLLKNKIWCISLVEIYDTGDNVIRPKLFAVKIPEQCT
NiV F protein, sequence (Q9IH63 110-546 limits assumed): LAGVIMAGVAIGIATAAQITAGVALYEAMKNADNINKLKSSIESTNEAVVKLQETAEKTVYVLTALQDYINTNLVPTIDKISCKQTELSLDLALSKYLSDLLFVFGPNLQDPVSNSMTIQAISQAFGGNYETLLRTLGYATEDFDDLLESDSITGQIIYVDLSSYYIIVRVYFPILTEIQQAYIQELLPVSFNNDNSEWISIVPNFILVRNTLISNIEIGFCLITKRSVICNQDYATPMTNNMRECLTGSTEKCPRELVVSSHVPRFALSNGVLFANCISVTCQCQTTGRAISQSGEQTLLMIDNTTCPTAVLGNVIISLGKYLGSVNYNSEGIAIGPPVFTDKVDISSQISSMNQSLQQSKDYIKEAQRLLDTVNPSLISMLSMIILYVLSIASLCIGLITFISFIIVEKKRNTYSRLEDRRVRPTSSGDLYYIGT
NiV F protein, sequence (Q9IH63 27-109 limits assumed): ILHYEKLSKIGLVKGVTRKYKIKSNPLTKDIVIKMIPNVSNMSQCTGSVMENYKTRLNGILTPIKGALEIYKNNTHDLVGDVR

C=CCN1C(=O)/C(=C/c2ccc(-c3ccccc3)o2)SC1=S [LJ001, reference compound]
cell-cell fusion (syncytia) [1]: affect cell-cell fusion
antiviral activity in the absence of light [2]: severely reduced in the absence of light

[Na+].[SH-] [NaHS]
antiviral effects against NiV [3]: known antiviral effects against NiV, although at high (millimolar) concentrations

COC(=O)C(CSSC(=O)c1ccccc1)NC(=O)c1ccccc1 (stereo not drawn) [XM-01]
inhibition of HSV-1 infection [4]: inhibited by XM-01 in a concentration-dependent fashion
inhibition of HCMV infection [5]: inhibited by XM-01 in a concentration-dependent fashion
inhibition of RSV infection [6]: inhibited by XM-01 in a concentration-dependent fashion
inhibition of VSV infection [7]: inhibited by XM-01 in a concentration-dependent fashion
EC50 [8]: high nanomolar to low micromolar range
inhibition of influenza A/California/04/2009 infection [8]: inhibited by XM-01 in a concentration-dependent fashion; also recorded: significantly inhibited
neutralization of influenza [8]: complete neutralization
inhibition of rotavirus entry [9]: not inhibited
inhibition of norovirus entry [10]: not inhibited
cell-cell membrane fusion (syncytia) [1]: significantly reduced levels of cell-cell membrane fusion
cell surface expression of F and G glycoproteins [11]: not be significantly affected
viral membrane appearance by electron microscopy [12]: compromised membranes
inactivation of SARS-CoV-2 [13]: complete inactivation
inhibition of plaque formation of SARS-CoV2 [13]: effective to inhibit plaque formation
EC50 [2]: ~1 µM
antiviral activity in the absence of light [2]: did not need light to inhibit pNiV infection
difference between the inhibitory and cytotoxic concentrations [2]: ~ 3 log
infectivity of treated virions [2]: highly inhibited
inhibition of infection post-entry (time of XM-01 addition) [2]: completely incapable of inhibiting the infection
viral infection after pre-treatment of cells [2]: did not significantly reduce viral infection
CC50 [14]: ~1000 µM
cytotoxicity [14]: little to no cytotoxicity
cytotoxicity levels [14]: low levels of cytotoxicity
ephrinB2/G binding [15]: did not interfere with the receptor-binding ability of the G glycoprotein
F-triggering [16]: not decreased
antibody binding to F or G (conformation) [17]: no significant changes in antibody binding to either glycoprotein

CC(=O)NC(CSSC(=O)c1ccccc1)C(=O)NCc1ccccc1 (stereo not drawn) [XM-02]
infectivity of pNiV in Vero cells [2]: best inhibited pNiV infections
inhibitory properties against pNiV [2]: inhibitory properties
cytotoxicity levels [14]: low levels of cytotoxicity

COC(=O)C(CSSC(C)=O)NC(=O)c1ccccc1 (stereo not drawn) [XM-03]
infectivity of pNiV in Vero cells [2]: best inhibited pNiV infections
inhibitory properties against pNiV [2]: inhibitory properties
cytotoxicity levels [14]: low levels of cytotoxicity

CCCCNC(=O)C(CCSSC(=O)c1ccccc1)NC(=O)c1ccccc1 (stereo not drawn) [XM-06]
infectivity of pNiV in Vero cells [2]: best inhibited pNiV infections

COC(=O)C(CSC(=O)c1ccccc1)NC(=O)c1ccccc1 (stereo not drawn) [XM-10]
inhibitory properties against pNiV [2]: inhibitory properties
cytotoxicity levels [14]: low levels of cytotoxicity

COC(=O)C(CSC(C)=O)NC(=O)c1ccccc1 (stereo not drawn) [XM-11]
inhibitory properties against pNiV [2]: inhibitory properties
cytotoxicity levels [14]: low levels of cytotoxicity

O=C(SSC(=O)c1ccccc1)c1ccccc1 [XM-12]
infectivity of pNiV in Vero cells [2]: best inhibited pNiV infections

C=O [formalin, reference compound]
inactivation of SARS-CoV-2 [13]: complete inactivation
